The assay addresses T1, recombinant human ALK protein (Homo sapiens, UniProt Q9UM73).
T1 construct: purchased Life Technologies Inc. PV3867
In words: LanthaScreen TR-FRET in vitro inhibitory activity assay of ALK. The settings on record: compound at 2ug/ml. Format: biochemical. The method, then: All reagents and anhydrous solvents were obtained from commercial sources and used as received. The positive control inhibitors of ALK, crizotinib and ceritinib, were purchased from Bangshunda Technology and Selleck Chemicals, respectively. The compounds were dissolved in 100% dimethyl sulfoxide (DMSO) as a 10 mM stock solution. The final DMSO concentration in each reaction was less than 1%. Purified recombinant human ALK protein (Catalog number: PV3867) as well as reagents for TR-FRET assay, including Lantha Screen™ Tb-PY20 (Catalog number: PV3552), Fluorescein-Poly GT (Catalog number: PV3610), ATP (Catalog number: PV3227), Kinase Quench Buffer (Catalog number: P2832), Kinase Buffer (Catalog number: PV3189), and Antibody Dilution Buffer (Catalog number: PV3574), were all obtained from Life Technologies Inc.
Lantha Screen™ kinase assay based on TR-FRET technology was used to measure the inhibitory activity of the screened compounds. All the assays were carried out in 384-well plate format. The 4 × test compounds were firstly prepared before the enzyme reaction starts. The 4 × recombinant human ALK protein and 2 × Substrate/ATP mixture were separately prepared in 50 mM HEPES (pH = 7.5), 0.01% BRIJ-35, 10 mM MgCl2, 4 mM MnCl2, 1 mM EGTA, and 2 mM DTT. The final 10 μL kinase reaction consists of 5 μL 1 × Substrate/ATP mixture (0.2 μM substrate and 5 μM ATP), 2.5 μL ALK (5 ng/ml ALK protein), and 2.5 μL 1 × test compounds with desired concentration. The assay plate was shook on a plate shaker for 30 seconds to mix the reactions thoroughly. After 1 hour kinase reaction incubation at room temperature (20 ~ 25 °C), 10 μL of pre-prepared 20 mM EDTA and 4 nM Tb-labeled antibody solution was then added to terminate the kinase reactions and to initiate antibody binding, and the assay plate was incubated for another 1 hour at room temperature. Then, the assay plate was placed into a fluorescence plate reader (BioTek Synergy™ 4) to measure both fluoresce in and terbium emission signals (excitation: 340 nm; emission: 520 and 495 nm, respectively) with 100 μs delay time and 200 μs integration time. To determine the IC50 values, the resulted inhibitory activity calculated from TR-FRET emission ratio (i.e. fluoresce in emission intensity/terbium emission intensity) was plotted against the concentration of inhibitor, and the data was fitted to a dose-response curve with a variable slop.
A general note: In TR-FRET formats the signal depends on donor and acceptor labels being close together.
T1 sequence (Q9UM73 1058-1620 limits assumed): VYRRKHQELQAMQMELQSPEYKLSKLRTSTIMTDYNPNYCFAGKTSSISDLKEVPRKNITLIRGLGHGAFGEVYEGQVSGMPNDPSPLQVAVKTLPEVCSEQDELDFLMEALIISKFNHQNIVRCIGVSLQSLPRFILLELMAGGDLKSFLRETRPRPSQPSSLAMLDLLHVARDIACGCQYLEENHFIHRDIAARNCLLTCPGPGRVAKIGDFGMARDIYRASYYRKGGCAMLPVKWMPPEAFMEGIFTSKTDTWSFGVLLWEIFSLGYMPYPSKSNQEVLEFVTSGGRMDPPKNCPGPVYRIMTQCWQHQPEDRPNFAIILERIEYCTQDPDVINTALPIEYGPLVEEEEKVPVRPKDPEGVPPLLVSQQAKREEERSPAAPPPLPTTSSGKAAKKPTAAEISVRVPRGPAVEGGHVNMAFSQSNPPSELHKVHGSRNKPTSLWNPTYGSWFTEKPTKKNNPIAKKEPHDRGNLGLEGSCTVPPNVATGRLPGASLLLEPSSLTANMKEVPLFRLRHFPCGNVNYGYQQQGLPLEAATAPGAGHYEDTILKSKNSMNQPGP
As to `O=C1/C(=C/c2ccc(-c3cccc(Cl)c3)o2)CCC/C1=C\c1ccc(-c2cccc(Cl)c2)o1` [AA-504/07472022], the “Averaged Enzymatic Inhibition @ 2ug/ml (%)” value is reported as 40.455%. For `c1ccc2cc3c(ccc4ccc5cc6c(ccc7ccccc76)cc5c43)cc2c1` [AB-131/42301451] the value was 28.575%; for `Cc1ccc(-c2nc(N3CC4(C)CC3CC(C)(C)C4)c3ccccc3n2)cc1` (stereo not shown) [AE-641/40974923], 13.995%; for `c1ccc(-c2oc3ncn4nc(COc5cccc6ccccc56)nc4c3c2-c2ccccc2)cc1` [AE-848/12917024], 13.565%. For the compound `CC(C)c1ccc(-c2c(C#N)c(N)nc3sc(C(=O)Nc4ccc(Cl)cc4)c(N)c23)cc1` [AE-848/15116593], the “Averaged Enzymatic Inhibition @ 2ug/ml (%)” value is -8.375%. Consider `Cc1ccccc1NC(=O)c1sc2nc(N)c(C#N)c(-c3ccc(C(C)C)cc3)c2c1N` [AE-848/15116597], for which the “Averaged Enzymatic Inhibition @ 2ug/ml (%)” value worked out at 8.9%.

For `Cc1ccc(NC(=O)c2sc3nc(N)c(C#N)c(-c4ccc(C(C)C)cc4)c3c2N)cc1Cl` [AE-848/15116611], the “Averaged Enzymatic Inhibition @ 2ug/ml (%)” value is given as 10.08%. Consider `O=C1C2=C(NC3=C(C(=O)c4ccccc43)C23C(=O)c2cccc4cccc3c24)c2ccccc21` [AE-848/15341192], for which the “Averaged Enzymatic Inhibition @ 2ug/ml (%)” value came out at 13.145%. With `COc1ccc(-n2c(-c3ccc(-c4ccccc4)cc3)nnc2-c2cccc3ccccc23)cc1` [AE-848/32007021], the “Averaged Enzymatic Inhibition @ 2ug/ml (%)” value stood at 5.085%.

Take `Cc1cccc(C)c1OCC(O)CN1CCC(CN2C(=O)c3cccc4cccc(c34)C2=O)CC1` (stereo not shown) [AF-399/14388040]: the “Averaged Enzymatic Inhibition @ 2ug/ml (%)” value is recorded as -20.41%. Turning to `O=C1c2cccc3cccc(c23)C(=O)N1CC1CCN(S(=O)(=O)/C=C/c2ccccc2)CC1` [AF-399/14864072], the “Averaged Enzymatic Inhibition @ 2ug/ml (%)” value is reported as -20.25%. Consider `OC(CNCCc1ccccc1)Cn1c(-c2ccccc2)c(-c2ccccc2)c2ccc3ccccc3c21` (stereo not shown) [AF-399/15128092], for which the “Averaged Enzymatic Inhibition @ 2ug/ml (%)” value is reported as -33.405%. Turning to `Cc1cc(C)c2c(c1)c(-c1ccccc1)c(-c1ccccc1)n2CC(O)CNCc1ccccc1` (stereo not shown) [AF-399/15128108], the “Averaged Enzymatic Inhibition @ 2ug/ml (%)” value is given as -21.105%. For the compound `Cc1cc(C)c2c(c1)c(-c1ccccc1)c(-c1ccccc1)n2CC(O)CNc1ccc(C(C)C)cc1` (stereo not shown) [AF-399/15128126], the “Averaged Enzymatic Inhibition @ 2ug/ml (%)” value was determined as 32.1%. The figure for `Cc1cc(C)c2c(c1)c(-c1ccccc1)c(-c1ccccc1)n2CC(O)CN1CCC(C)CC1` (stereo not shown) [AF-399/15128132] is -9.645%; for `CC(C)N(C(=O)Cn1c(/C=C/c2ccccc2)nc2ccccc21)c1ccccc1` [AF-399/15335536] it is 5.725%; for `Cc1ccc(-c2ccc(/C=C3/SC(N4CCN(c5cccc(C)c5)CC4)=NC3=O)o2)cc1` [AF-399/40881300] it is 13.735%. Turning to `Cc1ccc(C2C(C(=O)c3cc4ccccc4o3)=C(O)C(=O)N2c2nc3c(C)cc(C)cc3s2)cc1` (stereo not shown) [AF-399/42017504], the “Averaged Enzymatic Inhibition @ 2ug/ml (%)” value is on record as -5.97%. As to `Nc1cc(NC(=O)c2cn(-c3ccccc3)nc2-c2ccccc2)cc(Oc2ccccc2)c1` [AG-205/33688061], the “Averaged Enzymatic Inhibition @ 2ug/ml (%)” value was determined as 14.9%. Turning to `C=CCN(C(=O)c1ccc2nc(-c3ccccc3)c(-c3ccccc3)nc2c1)c1ccccc1` [AG-205/36717014], the “Averaged Enzymatic Inhibition @ 2ug/ml (%)” value was determined as 19.28%. For `COc1cc(/C=N/n2c(-c3ccccc3)n[nH]c2=S)cc(OC)c1O` [AG-205/36915079] the value was 18.19%; for `CCc1ccc(-n2c(CSc3nnnn3-c3ccccc3)nc3ccccc3c2=O)cc1` [AG-205/37086057], 40.815%. On to `Cc1ccccc1NC(=O)c1cc2ccccc2c(C=Nc2ccccc2Cl)c1O` [AG-664/32341038], for which the “Averaged Enzymatic Inhibition @ 2ug/ml (%)” value turned out to be 6.53%. With `Cc1cc(C)c2oc(-c3ccc(C)c(NS(=O)(=O)c4cc([N+](=O)[O-])ccc4Cl)c3)nc2c1` [AG-690/08629011], the “Averaged Enzymatic Inhibition @ 2ug/ml (%)” value came out at 26.47%.

With `Cc1ccc(NC(=O)c2ccc(-c3ccccc3)cc2)c(OC(=O)c2ccc(-c3ccccc3)cc2)c1` [AG-690/09396003], the “Averaged Enzymatic Inhibition @ 2ug/ml (%)” value amounted to 3.685%. The figure for `CCCn1c(=O)c(C(=O)NNS(=O)(=O)c2ccc(Br)cc2)c(O)c2ccccc21` [AG-690/11765341] is 9.265%; for `Cc1ccc(OS(=O)(=O)c2cccc(C(=O)Nc3ccccc3)c2)c(-n2nc3ccccc3n2)c1` [AG-690/11836103] it is -16.78%; for `Cc1ccc(-c2cc(-c3c(-c4ccccc4)c4cc(Cl)ccc4[nH]c3=O)nc3ccccc23)cc1` [AG-690/12134081] it is 10.575%. The figure for `O=C1c2ccccc2-c2c1c(-c1cccc(Oc3ccccc3)c1)nc1ccc3ccccc3c21` [AG-690/12869023] is 12.235%. Consider `c1ccc(-c2oc3ncn4nc(CSc5nc6ccccc6s5)nc4c3c2-c2ccccc2)cc1` [AG-690/12869680], for which the “Averaged Enzymatic Inhibition @ 2ug/ml (%)” value is listed as -1.245%. With `Cc1ccccc1-c1nnc(-c2ccc(-c3ccccc3)cc2)n1-c1ccccc1` [AG-690/33068064], the “Averaged Enzymatic Inhibition @ 2ug/ml (%)” value was 4.62%. As to `c1ccc2c(c1)Oc1ccccc1C2=C1c2ccccc2Oc2ccccc21` [AG-690/36541063], the “Averaged Enzymatic Inhibition @ 2ug/ml (%)” value came out at 11.335%.

In the case of `CC1=C(C(=O)Nc2ccccc2)C(c2ccccc2)n2c(s/c(=C/C=C\c3ccccc3)c2=O)=N1` (stereo not shown) [AG-690/37079179], the “Averaged Enzymatic Inhibition @ 2ug/ml (%)” value is 15.845%. For `O=C1c2ccccc2-c2onc3c(Sc4ccccc4)cc(Sc4ccccc4)c1c23` [AG-690/40097114], the “Averaged Enzymatic Inhibition @ 2ug/ml (%)” value came out at 1.725%.

Regarding `CC(C)(C)c1ccc(Oc2cc(Nc3ccccc3)c3c4c(onc24)-c2ccccc2C3=O)cc1` [AG-690/40097127], the “Averaged Enzymatic Inhibition @ 2ug/ml (%)” value is given as 11.435%. On to `Cc1ccc(-c2cc(-c3ccccc3Cl)c3c(N)c(-c4nnc(-c5ccccc5)o4)sc3n2)cc1` [AG-690/40749514], for which the “Averaged Enzymatic Inhibition @ 2ug/ml (%)” value is -4.41%.

`COc1ccc(-c2cc(C(=O)Nc3ccccc3-c3ccccc3)c3ccccc3n2)cc1` [AG-690/40749597]: the “Averaged Enzymatic Inhibition @ 2ug/ml (%)” value is listed as 2.49%. In the case of `CCOC(=O)c1c(/N=C(/Nc2ccccc2-c2ccccc2)c2ccccc2)sc2c1CCCC2` [AG-690/40750112], the “Averaged Enzymatic Inhibition @ 2ug/ml (%)” value turned out to be 16.665%. Take `Cc1ccc(S(=O)(=O)N(Cc2n[nH]c(=S)n2-c2ccccc2)c2cccc(Cl)c2)cc1` [AG-690/40751357]: the “Averaged Enzymatic Inhibition @ 2ug/ml (%)” value turned out to be 8.965%. As for `CCCCC1CCC(c2nc3c4c(c(Nc5cccc(C)c5)ccc4n2)C(=O)c2ccccc2-3)CC1` (stereo not shown) [AH-034/08463011], the “Averaged Enzymatic Inhibition @ 2ug/ml (%)” value is 1.2%. For `CCOc1cc(/C=N\NC(=O)CCc2ccccc2)ccc1OC(=O)/C=C/c1ccccc1` [AH-487/37011044] the value was -17.16%; for `Cc1cccc(N(CC(=O)N/N=C/c2cccc(Br)c2)S(=O)(=O)c2ccccc2)c1C` [AH-487/40936079], 0.44%; for `O=C1c2cccc3c2C2=S(Sc4ccc(NC5CCCCC5)c1c42)N3C1CCCCC1` (stereo not shown) [AH-541/12737056], 12.4%.

Values taken from publication PMC4840416, “Constructing and Validating High-Performance MIEC-SVM Models in Virtual Screening for Kinases: A Better Way for Actives Discovery” (Scientific Reports, 2016).
